Laboratory results published in PubChem BioAssay (NCI).
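The compound was tested at five concentrations on cells cultured in 96-well plates, with a 48-hour exposure period. At the GI50, growth is halved. TGI is the concentration that stops growth completely.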

How the values were obtained:
Assay in all cases: growth of human tumour cells (NCI), 48 h
A549 NSCLC = test system: A549 NSCLC
DU-145 prostate = test system: DU-145 prostate
HT29 colon = test system: HT29 colon
OVCAR-8 ovarian = test system: OVCAR-8 ovarian
RPMI-8226 leukemia = test system: RPMI-8226 leukemia
SF-268 CNS = test system: SF-268 CNS
SN12C renal = test system: SN12C renal
SNB-75 CNS = test system: SNB-75 CNS
SW-620 colon = test system: SW-620 colon
UO-31 renal = test system: UO-31 renal

SMILES | GI50 (A549 NSCLC) [µM] | TGI (A549 NSCLC) [µM] | GI50 (DU-145 prostate) [nM] | TGI (DU-145 prostate) [µM] | GI50 (HT29 colon) [nM] | TGI (HT29 colon) [µM] | GI50 (OVCAR-8 ovarian) [nM] | TGI (OVCAR-8 ovarian) [µM] | GI50 (RPMI-8226 leukemia) [nM] | TGI (RPMI-8226 leukemia) [µM] | GI50 (SF-268 CNS) [µM] | TGI (SF-268 CNS) [µM] | GI50 (SN12C renal) [µM] | TGI (SN12C renal) [µM] | GI50 (SNB-75 CNS) [nM] | TGI (SNB-75 CNS) [µM] | GI50 (SW-620 colon) [nM] | TGI (SW-620 colon) [µM] | GI50 (UO-31 renal) [nM] | TGI (UO-31 renal) [µM]
CN(Cc1cnc(N)nc1N)c1ccc(C(=O)O)cc1 | > 100 | > 100 | > 100000 | > 100 | > 100000 | > 100 | > 100000 | > 100 | > 100000 | > 100 | > 100 | > 100 | > 100 | > 100 | > 100000 | > 100 | > 100000 | > 100 | > 100000 | > 100
COC1C(O)C(C)OC(OC2C(Oc3cccc4c(O)c5c(=O)oc6ccc(C)c7c(=O)oc(c34)c5c67)OC(C)C3O[C@H](c4ccccc4)OC32)C1O (stereo partly specified) |  | 2.53 | 484 | 3.19 |  | 10.2 |  | 8.23 | 115 | 11.1 |  | 5.83 | 0.173 | 6.17 |  | 7.65 |  | 14.3 |  | 2.43
CC(=O)Nc1ccc(-c2c3nc(c(-c4cc5ccccc5[n+](C)c4)c4ccc([nH]4)c(-c4ccc(NC(C)=O)cc4)c4nc(c(-c5cc6ccccc6[n+](C)c5)c5ccc2[nH]5)C=C4)C=C3)cc1 | 8.6 | 35.4 | 5930 | 17.1 | 40300 | > 50 | 15700 | > 50 | 21600 | > 50 | 35 | > 50 | 7.09 | 23.2 | 2170 | 11.7 | 23600 | > 50 | 10600 | 33.6
CC1=CC[C@@H]2C(C)(C)C(=O)CC[C@@]2(C)[C@@H]1COc1ccc2ccc(=O)oc2c1 | 10.9 | 71.2 | 23600 | 93.6 | 23800 | > 100 | 5690 | 39 |  |  | 23.3 | > 100 | 27.3 | > 100 |  |  | 24900 | > 100 | 8150 | 34.9
CCNC(C)(C)C(SS)c1ccc(Br)cc1 (stereo unspecified) |  | > 100 |  | > 100 |  | 69.3 |  | > 100 |  | 76.1 |  | > 100 |  | > 100 |  | > 100 |  | 56.2 |  | > 100
O=S(=O)(Nc1cc(Br)c(O)c2ccccc12)c1ccc(F)cc1 | 8.3 | 26.7 | 1830 | 3.32 | 18200 | > 100 | 2780 | 7.87 | 2940 | 20.1 | 3.2 | 12.1 | 2.04 | 4.36 | 3570 | 17.1 | 2450 | 7.65 | 2150 | 11.6
N#CC(C#N)=Cc1c(-c2ccccc2)[nH]c2ccccc12 | 4.62 | > 100 | 3200 | 17.9 | 526 | > 53.9 | 5750 | > 90.2 | 564 | 4.62 | 8.81 | > 46.2 | 5.82 | > 73.3 | 2000 | 14.3 | 523 | > 35.1 | 11000 | > 75.6
O=C(/C=C1\C(=O)N(Cc2ccc([N+](=O)[O-])cc2)c2ccccc21)c1ccc(OCCN2CCCCC2)cc1 | 1.68 | 3.28 | 1560 | 2.93 | 1400 | 2.88 | 2210 | 4.8 | 1350 | 4.13 | 1.58 | 3.32 |  |  | 2220 | 11.3 |  |  | 1400 | 2.7
O=[N+]([O-])c1cc([N+](=O)[O-])c(Cl)c(Cl)c1Cl | 3.16 | 13.9 | 1570 | 2.98 | 477 | 1.99 | 1940 | 4.57 | 1540 | 5.01 | 1.73 | 3.92 |  |  | 1540 | 2.95 | 535 | 1.94 | 1510 | 3.08
O=C(Cn1c(=O)c(-c2ccccc2)nc2ccccc21)c1ccc(Cl)cc1 | 58.3 | > 100 | 52200 | > 100 | 41700 | > 100 | 51900 | > 100 | 57800 | > 100 | > 100 | > 100 | 48.6 | > 100 |  |  | > 100000 | > 100 | 80800 | > 100
COc1ccc(Cl)cc1Nc1nc(C(F)(F)F)ccc1C(=O)N/N=C/c1ccc([N+](=O)[O-])cc1 | 3.41 | 52.7 | 1270 | 3.21 | 2200 | 5.49 | 2770 | 62.2 | 1600 | 6.55 | 1.69 | 5.8 |  |  | 2210 | 12.9 | 2770 | > 100 | 1770 | 5.97
Cc1cc(=O)oc2c(CN3CCCCC3)c(O)ccc12 |  | > 100 |  | > 100 |  | > 100 |  | > 100 |  | > 100 |  | > 100 |  | > 100 |  | > 100 |  | > 100 |  | 
CCN(CC)C(=O)CC1=C(C)/C(=C/c2[nH]c(-c3ccc[nH]3)cc2OC)N=C1C | 0.639 | > 100 | 546 | > 100 | 287 | 48.3 | 455 | 22.5 | 304 | 2.28 | 0.633 | 21.3 |  |  | 307 | 3.35 | 334 | 13.4 | 554 | 2.5
